Laboratory results reported in ChEMBL document CHEMBL4177558, “Rapid, microwave-accelerated synthesis and anti-osteoporosis activities evaluation of Morusin scaffolds and Morusignin L scaffolds” (2017).
The source made the active and inactive calls. The rule behind the calls is not given here.

Assays:
MC3T3-E1 [1] = assay: Induction of osteoblast proliferation in mouse MC3T3-E1 cells assessed a growth rate relative to untreated control at 10^-7 mol/L after 48 hrs by MTT assay; format: functional
MC3T3-E1 [2] = assay: Induction of osteoblast proliferation in mouse MC3T3-E1 cells assessed a growth rate relative to untreated control at 10^-6 mol/L after 48 hrs by MTT assay; format: functional
MC3T3-E1 [3] = assay: Induction of osteoblast proliferation in mouse MC3T3-E1 cells assessed as growth rate relative to untreated control at 10^-5 mol/L after 48 hrs by MTT assay; format: functional; details: MC3T3-E1, 48 h, read-out: Activity
MC3T3-E1 [4] = assay: Induction of osteoblast proliferation in mouse MC3T3-E1 cells assessed a growth rate relative to untreated control at 10^-8 mol/L after 48 hrs by MTT assay; format: functional
Osteoclast [5] = assay: Anti-osteoporotic activity assessed as osteoclast differentiation in rabbit bone marrow-derived osteoclast at 1 x 10^-5 mol/L after 8 days by TRAP staining-based phase-contrast microscopic method; format: functional, cell-based; details: Oryctolagus cuniculus
Bone [6] = assay: Anti-osteoporotic activity in bovine bone assessed as bone resorption of osteoclast at 1 x 10^-5 mol/L after 8 days by toluidine blue staining-based method; format: functional, tissue-based; details: Bos taurus; Bone element
Osteoclast [7] = assay: Inhibition of New Zealand white rabbit bone marrow-derived osteoclast differentiation assessed as reduction in TRAP positive cells at 1 x 10^-5 to 1 x 10^-8 mol/L measured on day 8 post dose by leukocyte acid phosphatase-staining based phase contrast microscopy; format: functional, cell-based; details: Oryctolagus cuniculus
Osteoclast [8] = assay: Inhibition of New Zealand white rabbit bone marrow-derived osteoclast differentiation assessed as reduction in TRAP activity in at 1 x 10^-6 to 1 x 10^-8 mol/L measured on day 8 post dose by StrACP assay; format: functional, cell-based; details: Oryctolagus cuniculus
Osteoclast [9] = assay: Inhibition of New Zealand white rabbit bone marrow-derived osteoclast differentiation assessed as reduction in TRAP activity in at 1 x 10^-5 mol/L measured on day 8 post dose by StrACP assay; format: functional, cell-based; details: Oryctolagus cuniculus
Bone [10] = assay: Anti-osteoporotic activity in bovine bone assessed as bone resorption of osteoclast at 1 x 10^-8 mol/L after 8 days by toluidine blue staining-based method; format: functional, tissue-based; details: Bos taurus; Bone element

For CC(O)CCc1c(-c2ccccc2Cl)oc2c3c(cc(O)c2c1=O)OC(C)(C)C=C3 (centres undefined), the Activity (MC3T3-E1 [1]) was 2.37%, the Activity (MC3T3-E1 [2]) was 5.18% and the growth at 10 µM (MC3T3-E1 [3]) was 24%. The Activity (MC3T3-E1 [4]) was 0.53%.

Molecule CC(=O)CCc1c(-c2ccccc2Br)oc2c3c(cc(O)c2c1=O)OC(C)(C)C=C3 has an Activity (MC3T3-E1 [1]) of 0.46%, an Activity (MC3T3-E1 [2]) of 0.83% and a growth at 10 µM (MC3T3-E1 [3]) of 12.8%. The Activity (MC3T3-E1 [4]) was 2.42%.

With CC(O)CCc1c(-c2ccccc2Br)oc2cc3c(c(O)c2c1=O)C=CC(C)(C)O3 (centres undefined) the Activity (MC3T3-E1 [1]) was 2.87%, the Activity (MC3T3-E1 [2]) was 2.8% and the growth at 10 µM (MC3T3-E1 [3]) was 10.5%. The Activity (MC3T3-E1 [4]) was -0.52%.

For CC(O)CCc1c(-c2ccccc2Br)oc2c3c(cc(O)c2c1=O)OC(C)(C)C=C3 (centres undefined), the Activity (MC3T3-E1 [1]) was 6.7%, the Activity (MC3T3-E1 [2]) was 4.94% and the growth at 10 µM (MC3T3-E1 [3]) was 19.5%. For the same molecule, the Activity (MC3T3-E1 [4]) was 7.02%.

CC1(C)C=Cc2c(cc3oc(-c4ccccc4Br)c(CCC(C)(O)c4ccccc4)c(=O)c3c2O)O1 (centres undefined) was tested, and the Activity (MC3T3-E1 [1]) was 6.08%, the Activity (MC3T3-E1 [2]) was 17.66% and the growth at 10 µM (MC3T3-E1 [3]) was 12.1%. It also gave an Activity (MC3T3-E1 [4]) of 10.13%.

For CC(C)(O)CCc1c(-c2ccccc2Br)oc2c3c(cc(O)c2c1=O)OC(C)(C)C=C3, the Activity (MC3T3-E1 [1]) was 4.22%, the Activity (MC3T3-E1 [2]) was 0.33% and the growth at 10 µM (MC3T3-E1 [3]) was 2.6%. The Activity (MC3T3-E1 [4]) was 3.41%.

CC1(C)C=Cc2c(cc(O)c3c(=O)c(CCC(C)(O)c4ccc(F)cc4)c(-c4ccccc4Cl)oc23)O1 (centres undefined) was tested, and the Activity (MC3T3-E1 [1]) was 6.89%, the Activity (MC3T3-E1 [2]) was 6.35% and the growth at 10 µM (MC3T3-E1 [3]) was 15.9%. It also gave an Activity (MC3T3-E1 [4]) of 6.02%.

Molecule CC1(C)C=Cc2c(cc3oc(-c4ccccc4Br)c(CCC(C)(O)c4ccc(F)cc4)c(=O)c3c2O)O1 (centres undefined) has an Activity (MC3T3-E1 [1]) of 6.25%, an Activity (MC3T3-E1 [2]) of 1.49% and a growth at 10 µM (MC3T3-E1 [3]) of -4.88%. The Activity (MC3T3-E1 [4]) was 1.91%.

In the case of CC1(C)C=Cc2c(cc(O)c3c(=O)c(CCC(C)(O)c4ccc(F)cc4)c(-c4ccccc4Br)oc23)O1 (centres undefined), the Activity (MC3T3-E1 [1]) is reported as 6.42%, the Activity (MC3T3-E1 [2]) is reported as 7.88% and the growth at 10 µM (MC3T3-E1 [3]) is reported as 17.2%. For the same molecule, the Activity (Osteoclast [5]) was “Active”, the Activity (MC3T3-E1 [4]) was 4.55% and the Activity (Bone [6]) was “Active”.

Molecule CC(C)(O)CCc1c(-c2ccccc2Cl)oc2cc3c(c(O)c2c1=O)C=CC(C)(C)O3 has an Activity (MC3T3-E1 [1]) of 3.74%, an Activity (MC3T3-E1 [2]) of 4.61% and a growth at 10 µM (MC3T3-E1 [3]) of 14.3%. The Activity (MC3T3-E1 [4]) was 6.39%.

For CC(=O)CCc1c(-c2ccccc2Cl)oc2c3c(cc(O)c2c1=O)OC(C)(C)C=C3, the Activity (MC3T3-E1 [1]) was 5.13%, the Activity (MC3T3-E1 [2]) was 6.01% and the growth at 10 µM (MC3T3-E1 [3]) was 18.3%. For the same molecule, the Activity (MC3T3-E1 [4]) was 0.06%.

CC(=O)CCc1c(-c2ccccc2Cl)oc2cc3c(c(O)c2c1=O)C=CC(C)(C)O3 was tested, and the Activity (MC3T3-E1 [1]) was 9.58%, the Activity (MC3T3-E1 [2]) was 9% and the growth at 10 µM (MC3T3-E1 [3]) was 7.62%. For the same molecule, the Activity (MC3T3-E1 [4]) was 0.85%.

CC(C)(O)CCc1c(-c2ccc(O)cc2O)oc2cc3c(c(O)c2c1=O)C=CC(C)(C)O3 was tested, and the Activity (MC3T3-E1 [1]) was 5.88%, the inhibition (Osteoclast [7]) was “Active” and the inhibition (Osteoclast [8]) was “inactive”. For the same molecule, the Activity (MC3T3-E1 [2]) was 6.69%, the growth at 10 µM (MC3T3-E1 [3]) was -4.81% and the Activity (MC3T3-E1 [4]) was 2.26%. For the same molecule, the Activity (Bone [6]) was “Active” and the inhibition (Osteoclast [9]) was “Active”.

CC(=O)CCc1c(-c2ccccc2Br)oc2cc3c(c(O)c2c1=O)C=CC(C)(C)O3 was tested, and the Activity (MC3T3-E1 [1]) was 0.79%, the Activity (MC3T3-E1 [2]) was 0.88% and the growth at 10 µM (MC3T3-E1 [3]) was 10.6%. It also gave an Activity (MC3T3-E1 [4]) of 0.38%.

For CC(C)=CCc1c(-c2ccc(O)cc2O)oc2c3c(cc(O)c2c1=O)OC(C)(C)C=C3 [MORUSIN], the Activity (MC3T3-E1 [1]) was 3.88%, the Activity (MC3T3-E1 [2]) was 9.57% and the growth at 10 µM (MC3T3-E1 [3]) was 16%. For the same molecule, the Activity (MC3T3-E1 [4]) was 7.13%.

In the case of CC1(C)C=Cc2c(cc3oc(-c4ccccc4Cl)c(CCC(C)(O)c4ccc(F)cc4)c(=O)c3c2O)O1 (centres undefined), the Activity (MC3T3-E1 [1]) is reported as 6.45%, the Activity (MC3T3-E1 [2]) is reported as 11.03% and the growth at 10 µM (MC3T3-E1 [3]) is reported as 4.88%. It also gave an Activity (MC3T3-E1 [4]) of 6.83%.

With CC(O)CCc1c(-c2ccccc2Cl)oc2cc3c(c(O)c2c1=O)C=CC(C)(C)O3 (centres undefined) the Activity (MC3T3-E1 [1]) was 7.45%, the Activity (MC3T3-E1 [2]) was 5.63% and the growth at 10 µM (MC3T3-E1 [3]) was 27.1%. The Activity (Osteoclast [5]) was “Active”, the Activity (MC3T3-E1 [4]) was 11.08% and the Activity (Bone [6]) was “Active”.

CC(C)(O)CCc1c(-c2ccccc2Br)oc2cc3c(c(O)c2c1=O)C=CC(C)(C)O3 was tested, and the Activity (MC3T3-E1 [1]) was 4.54%, the Activity (MC3T3-E1 [2]) was 7.7% and the growth at 10 µM (MC3T3-E1 [3]) was 13.4%. The Activity (Osteoclast [5]) was “Active”, the Activity (MC3T3-E1 [4]) was 8.54% and the Activity (Bone [6]) was “Active”.

With CC(C)Oc1ccc2c(=O)c(-c3ccccc3)coc2c1 [IPRIFLAVONE] the Activity (Bone [10]) was “Active” and the Activity (MC3T3-E1 [4]) was 4.09 - 17.3%.

CC(C)(O)CCc1c(-c2ccccc2Cl)oc2c3c(cc(O)c2c1=O)OC(C)(C)C=C3 was tested, and the Activity (MC3T3-E1 [1]) was 1.78%, the Activity (MC3T3-E1 [2]) was 2.97% and the growth at 10 µM (MC3T3-E1 [3]) was 4.29%. The Activity (MC3T3-E1 [4]) was 3.08%.

CC1(C)C=Cc2c(cc(O)c3c(=O)c(CCC(C)(O)c4ccccc4)c(-c4ccccc4Br)oc23)O1 (centres undefined) showed an Activity (MC3T3-E1 [1]) of 14.74%, an Activity (MC3T3-E1 [2]) of 16.65% and a growth at 10 µM (MC3T3-E1 [3]) of 21.7%. For the same molecule, the Activity (Osteoclast [5]) was “Active”, the Activity (MC3T3-E1 [4]) was 8.56% and the Activity (Bone [6]) was “Active”.
